Legend:
[1] = system: Echinochloa crus-galli (L.) P.BEAUV. (barnyardgrass); test: In-water applied herbicidal activity in transplanted paddy rice (Example 17); type: in vivo; details: Echinochloa crus-galli, 504 h, rice cropping systems, in-water applied (paddy), 21 DAA, may represent multiple trials, read-out: Visual Injury (%) ECHCG; for pest or weed control at 35 g/ha: 35 g ae/ha; for pest or weed control at 17.5 g/ha: 17.5 g ae/ha
Experimental: (§1) Weed seeds or nutlets of the desired test plant species were planted in puddled soil (mud) prepared by mixing a non-sterilized mineral soil (28 percent silt, 18 percent clay, and 54 percent sand, with a pH of about 7.3 to 7.8 and an organic matter content of about 1.0 percent) and water at a ratio of 100 kilograms (kg) of soil to 19 liters (L) of water. The prepared mud was dispensed in 250 mL aliquots into 480 mL non-perforated plastic pots with a surface area of 91.6 cm^2 leaving a headspace of 3 cm in each pot. Rice seeds were planted in Sun Gro MetroMix 306 planting mixture, which typically has a pH of 6.0 to 6.8 and an organic matter content of about 30 percent, in plastic plug trays. Seedlings at the second or third leaf stage of growth were transplanted into 650 mL of mud contained in 960 mL non-perforated plastic pots with a surface area of 91.6 cm^2 four days prior to herbicide application. The paddy was created by filling the 3 cm headspace of the pots with water. When required to ensure good germination and healthy plants, a fungicide treatment and/or other chemical or physical treatment was applied. The plants were grown for 4-14 d in a greenhouse with an approximate 14-h photoperiod which was maintained at about 29° C. during the day and 26° C. during the night. Nutrients were added as Osmocote (17:6:10, Nitrogen:Phosphorus:Potassium (N:P:K)+minor nutrients) at 2 grams (g) per cup. Water was added on a regular basis to maintain the paddy flood, and supplemental lighting was provided with overhead metal halide 1000-Watt lamps as necessary. The plants were employed for testing when they reached the second or third true leaf stage.
(§2) Treatments consisted of esters of compounds 1-4, 6-33, 35-39, 41 and 42 and A-G. Compound A is methyl 4-amino-3-chloro-6-(4-chloro-3-ethoxy-2-fluorophenyl)-5-fluoropicolinate; compound B is methyl 4-amino-3-chloro-6-(4-cyclopropylphenyl)-5-fluoropicolinate; compound C is methyl 4-amino-3-chloro-6-(2,4-dichloro-3-methoxyphenyl)picolinate; compound D is methyl 6-amino-2-(4-chloro-2-fluoro-3-methoxyphenyl)-5-vinylpyrimidine-4-carboxylate; compound E is methyl 4-amino-3-chloro-6-(4-chloro-2-fluoro-3-methoxyphenyl)-5-fluoropicolinate; compound F is methyl 6-amino-2-(4-chloro-2-fluoro-3-methoxyphenyl)-5-methoxypyrimidine-4-carboxylate; and compound G is methyl 4-amino-3-chloro-6-(4-chloro-2-fluoro-3-methoxyphenyl)picolinate. Weighed amounts of technical grade compounds were placed in individual 120 mL glass vials and were dissolved in 20 mL of acetone to obtain concentrated stock solutions. […] The concentrated stock solutions obtained were diluted with 20 mL of an aqueous mixture containing 2.5% Agri-dex crop oil concentrate (v/v). The final application solutions contained 1.25% (v/v) Agri-dex crop oil concentrate. Generally, multiple concentrations were tested utilizing the same stock solution. Applications were made by injecting an appropriate amount of the application solution into the aqueous layer of the paddy. Control plants were treated in the same manner with the solvent blank.
(§3) The treated plants and control plants were placed in a greenhouse as described above and water was added as needed to maintain a paddy flood. After 3 weeks the condition of the test plants, compared with that of the untreated plants, was determined visually and scored on a scale of 0 to 100 percent where 0 corresponds to no injury and 100 corresponds to complete kill.
(§4) By applying the well-accepted probit analysis as described by J. Berkson in Journal of the American Statistical […], 48, 565 (1953) and by D. Finney in “Probit Analysis” Cambridge University Press (1952), the data gathered can be used to calculate GR50 and GR80 values, which are defined as growth reduction factors that correspond to the effective dose of herbicide required to kill or control 50 percent or 80 percent, respectively, of a target plant.

[2] = system: Cyperus difformis L. (small-flower flatsedge); test: Postemergence foliar-applied herbicidal activity in direct seeded rice (Example 16); type: in vivo; details: post-emergence, 504 h, rice cropping systems, foliar-applied, 8.75 g ae/ha, 21 DAA, may represent multiple trials, read-out: Visual Injury (%) CYPDI
Excerpt: (§5) Seeds or nutlets of the desired test plant species were planted in a soil matrix prepared by mixing a loam soil (43 percent silt, 19 percent clay, and 38 percent sand, with a pH of about 8.1 and an organic matter content of about 1.5 percent) and river sand in an 80 to 20 ratio. The soil matrix was contained in plastic pots with a surface area of 139.7 cm^2. When required to ensure good germination and healthy plants, a fungicide treatment and/or other chemical or physical treatment was applied. The plants were grown for 10-17 d in a greenhouse with an approximate 14-h photoperiod which was maintained at about 29° C. during the day and 26° C. during the night. Nutrients and water were added on a regular basis and supplemental lighting was provided with overhead metal halide 1000-Watt lamps as necessary. The plants were employed for testing when they reached the second or third true leaf stage.
(§6) Treatments consisted of esters of compounds 1-4, 6-8, 10, 11, 13-16, 20-31, 35, 38, 41 and 42 and A-E. Compound A is methyl 4-amino-3-chloro-6-(4-chloro-3-ethoxy-2-fluorophenyl)-5-fluoropicolinate; compound B is methyl 4-amino-3-chloro-6-(4-cyclopropylphenyl)-5-fluoropicolinate; compound C is methyl 4-amino-3-chloro-6-(2,4-dichloro-3-methoxyphenyl)picolinate; compound D is methyl 6-amino-2-(4-chloro-2-fluoro-3-methoxyphenyl)-5-vinylpyrimidine-4-carboxylate; and compound E is methyl 4-amino-3-chloro-6-(4-chloro-2-fluoro-3-methoxyphenyl)-5-fluoropicolinate. Weighed amounts of technical grade compounds were placed in 25 mL glass vials and dissolved in a volume of 97:3 v/v acetone-DMSO to obtain 12× stock solutions. […] The concentrated stock solutions were added to the spray solutions so that the final acetone and DMSO concentrations were 16.2% and 0.5%, respectively. Spray solutions were diluted to the appropriate final concentrations with the addition of 10 mL of an aqueous mixture of 1.5% (v/v) Agri-dex crop oil concentrate. Generally, multiple concentrations of spray solutions were formulated and tested utilizing the same stock solution. The final spray solutions contained 1.25% (v/v) Agri-dex crop oil concentrate. Compound requirements are based upon a 12 mL application volume at a rate of 187 L/ha. Spray solutions were applied to the plant material with an overhead Mandel track sprayer equipped with 8002E nozzles calibrated to deliver 187 L/ha over an application area of 0.503 square meters (m^2) at a spray height of 18 inches (43 cm) above average plant canopy height. Control plants were sprayed in the same manner with the solvent blank.
as §3, with “watered by sub-irrigation” for “water was added as needed”, “prevent wash-off of the test compounds.” for “maintain a paddy flood.”, “weeks,” for “weeks”
as §4

[3] = system: Scirpus juncoides ROXB. (Japanese bulrush); test: as above; type: in vivo; details: Schoenoplectiella juncoides, post-emergence, 504 h; rice cropping systems, foliar-applied, 8.75 g ae/ha, 21 DAA; may represent multiple trials; read-out: Visual Injury (%) SCPJU
Excerpt: as §5, §6
as §3, with “watered by sub-irrigation” for “water was added as needed”, “prevent wash-off of the test compounds.” for “maintain a paddy flood.”, “weeks,” for “weeks”
as §4

[4] = system: Scirpus juncoides ROXB. (Japanese bulrush); test: In-water applied herbicidal activity in transplanted paddy rice (Example 17); type: in vivo; details: Schoenoplectiella juncoides, 504 h; rice cropping systems, in-water applied (paddy), 17.5 g ae/ha, 21 DAA; may represent multiple trials; read-out: Visual Injury (%) SCPJU
Experimental: as §1, §2, §3, §4

melting point [°C] | SMILES | pest or weed control at 35 g/ha [1] [%] | pest or weed control at 8.75 g/ha [2] [%] | pest or weed control at 8.75 g/ha [3] [%] | pest or weed control at 17.5 g/ha [1] [%] | pest or weed control at 17.5 g/ha [4] [%]
100 to 108 | COc1c(Cl)ccc(-c2cc(N)c(Cl)c(C(=O)OCc3ccc(Cl)cc3)n2)c1F [Compound 18] | 100 |  |  |  | 
151 | COc1c(Cl)ccc(-c2nc(C(=O)OCc3ccc(C#N)cc3)c(Cl)c(N)c2F)c1F [Compound 4] |  | 80 | 80 | 95 | 95
183 to 184 | COc1ccc(COC(=O)c2nc(-c3ccc(Cl)c(OC)c3F)c(F)c(N)c2Cl)cc1 [Compound 5] |  |  |  |  | 
160 to 161 | COc1c(Cl)ccc(-c2nc(C(=O)OCc3cccc(F)c3)c(Cl)c(N)c2F)c1F [Compound 23] |  | 100 | 100 | 60 | 95
135 to 136 | COc1ccccc1COC(=O)c1nc(-c2ccc(Cl)c(OC)c2F)c(F)c(N)c1Cl [Compound 10] |  | 100 | 91 | 70 | 100
144 to 145 | COC(=O)c1cccc(COC(=O)c2nc(-c3ccc(Cl)c(OC)c3F)c(F)c(N)c2Cl)c1 [Compound 29] |  | 100 | 100 | 10 | 60
139 | COc1c(Cl)ccc(-c2nc(C(=O)OCc3ccc(C)cc3)c(Cl)c(N)c2F)c1F [Compound 3] |  | 100 | 99 | 78 | 99
143 | COc1c(Cl)ccc(-c2nc(C(=O)OCc3ccc(Cl)cc3)c(Cl)c(N)c2F)c1F [Compound 2, 4-chlorobenzyl 4-amino-3-chloro-6-(4-chloro-2-fluoro-3-methoxyphenyl)-5-fluoropicolinate] |  | 100 | 100 | 97 | 99
145 | COc1c(Cl)ccc(-c2nc(C(=O)OCc3ccc(SC)cc3)c(Cl)c(N)c2F)c1F [Compound 31] |  | 100 | 100 | 50 | 85
147 to 148 | COc1c(Cl)ccc(-c2nc(C(=O)OCc3cccc(Cl)c3)c(Cl)c(N)c2F)c1F [Compound 12] |  |  |  | 100 | 100
161 | COC(=O)c1ccccc1COC(=O)c1nc(-c2ccc(Cl)c(OC)c2F)c(F)c(N)c1Cl [Compound 32] |  |  |  | 60 | 100
 | COc1c(Cl)ccc(-c2nc(C(=O)OC(C)c3ccccc3)c(Cl)c(N)c2F)c1F (stereo not shown) [Compound 14] |  | 95 | 50 | 10 | 70
 | COc1c(Cl)ccc(-c2cc(N)c(Cl)c(C(=O)OCCc3ccccc3)n2)c1F [Compound 37] | 98 |  |  |  | 
 | COc1c(Cl)ccc(-c2nc(C(=O)OCc3ccc(OC(F)(F)F)cc3)c(Cl)c(N)c2F)c1F [Compound 20, 4-trifluoromethoxybenzyl 4-amino-3-chloro-6-(4-chloro-2-fluoro-3-methoxyphenyl)-5-fluoropicolinate] |  | 100 | 100 | 50 | 0
183 to 184 | COc1c(Cl)ccc(-c2nc(C(=O)OCc3ccccc3Cl)c(Cl)c(N)c2F)c1F [Compound 9] |  |  |  | 100 | 100
110 to 113 | COc1c(Cl)ccc(-c2cc(N)c(Cl)c(C(=O)OC(C)c3ccccc3)n2)c1F (stereo not shown) [Compound 19] | 90 |  |  |  | 
